Test results published in patent publication US20220347175A1, “PYRIDAZINONE DERIVATIVE” (Sumitomo Dainippon Pharma Co., Ltd., priority 2018, published 2022).
Read-outs that look alike come from different tables or passages of the source.

Target: T1, human Nav1.1 (Homo sapiens, UniProt P35498)
T1 construct: host or cells: HEK293
Test: Amplification of Nav1.1-derived voltage-dependent sodium current (Nav1.1 current), cell line stably expressing human Nav1.1, automated patch clamp
Assay type: cell-based
Settings: for activation at 1 µM / activation at 10 µM / activation at 50 µM: read-out: Nav1.1 current amplification rate (%)
Procedure: Test 1: Evaluation of the Amplification of Nav1.1-Derived Voltage-Dependent Sodium Current (Nav1.1 Current) by Using a Cell Line Stably Expressing Human Nav1.1
(1) Preparation of Test Compounds
Test compounds were prepared by dissolving in DMSO at 200 times of the concentration at evaluation, and diluting the obtained solution to twice the concentration of evaluation with an extracellular fluid (135 mmol/L NaCl, 4 mmol/L KCl, 1 mmol/L MgCl2, 5 mmol/L CaCl2, 5 mmol/L Glucose, 10 mmol/L HEPES).
(2) Induction and Measurement of Nav1.1 Current
A HEK293 cell line stably expressing human Nav1.1 (cat #CYL3009, Millipore, USA, Human Embryonic Kidney 293) was purchased, and used in the present test. Nav1.1 current was induced by stimulating Ramp wave voltage. Detection of current which accompanied with the stimulation of voltage was carried out by a patch-clamp voltage-clamp method using HTS automated patch clamp system (SynchroPatch 768PE, Nanion Technologies GmbH, Germany). Only cells with more than 500 pA of voltage-dependent sodium channel current were used for the evaluation of the activity of compounds on Nav1.1 current because there was the possibility that currents derived from endogenous voltage-dependent sodium channels accounted for large proportion in cells with less than 500 pA of voltage-dependent sodium channel current which was induced by stimulating Ramp wave voltage.
(3) Pharmacologic Effect on Nav1.1 Current
The effect of test compounds on the amplification of Nav1.1-derived voltage-dependent sodium current was evaluated by using a cell line stably expressing human Nav1.1 and HTS automated patch clamp system. In other words, test compounds were added in an extracellular fluid containing 1% DMSO, and evaluated as a change of the peak value of Nav1.1 current and the area under the curve (AUC).
(4) Method for Pharmacological Evaluation
The Nav1.1 current amplification rates of test compounds were calculated by the following formula:
Nav1.1 current amplification rate (%)=100×[the peak value of Nav1.1 current or the area under the curve after the addition of test compounds]/[the peak value of Nav1.1 current or the area under the curve before the addition of test compounds]−100

[1] = concentration of each compound 1 μmol/L (Test Result 6)
[2] = 10 μmol/L compound (Test Result 5)
[3] = compound 50 μmol/L, HEK293 stably expressing human Nav1.1
[4] = Concentration 1 μM (Test Result 7)

CC1CC=C(c2ccc(=O)n(CC(=O)Nc3cnc4c(cnn4C)c3)n2)CC1 (racemic) [Example 348]
Nav1.1 current amplification rate (%) [1]: 57%

CC1CC=C(c2ccc(=O)n(CC(=O)N3CCc4c3ccnc4C3=CCN(C)C3)n2)CC1 (racemic) [Example 283]
Nav1.1 current amplification rate (%) [1]: 15%

Cc1c(N2CCC(C)CC2)nn(CC(=O)Nc2ccc(C#N)cc2)c(=O)c1C [Example 35]
Nav1.1 current amplification rate (%) [2]: 301%

CC1CC=C(c2ccc(=O)n(CC(=O)Nc3ccn4cnnc4c3)n2)CC1 (racemic) [Example 358]
Nav1.1 current amplification rate (%) [1]: 71%

N#Cc1ccc(NC(=O)Cn2nc(N3CCC4(CC4)C3)ccc2=O)cc1 [Example 25]
Nav1.1 current amplification rate (%) [2]: 163%

N#Cc1ccc(NC(=O)Cn2nc(C3CCCCC3)ccc2=O)cc1 [Example 40]
Nav1.1 current amplification rate (%) [2]: 20%

N#Cc1ccc(NC(=O)Cn2nc(N3CCC4(CC3)CC4)ccc2=O)cc1 [Example 17]
Nav1.1 current amplification rate (%) [2]: 212%

CC1CC=C(c2ccc(=O)n(CC(=O)N3CCc4c3ccnc4-c3cn[nH]c3)n2)CC1 (racemic) [Example 285]
Nav1.1 current amplification rate (%) [1]: 113%

CC1CC(C)CN(c2ccc(=O)n(CC(=O)Nc3ccc(C#N)cc3)n2)C1 (stereo not shown) [Example 14]
Nav1.1 current amplification rate (%) [2]: 9%

Cc1ccc(-c2ccc(=O)n(CC(=O)Nc3ccnnc3)n2)cc1 [Example 142]
Nav1.1 current amplification rate (%) [2]: 34%

N#Cc1ccc(NC(=O)Cn2nc(N3CCC4(CCC4)C3)ccc2=O)cc1 [Example 34]
Nav1.1 current amplification rate (%) [2]: 311%

CC1CC=C(c2ccc(=O)n(CC(=O)NC3CCN(c4ccccc4)C3)n2)CC1 (mixture of isomers) [Example 369]
Nav1.1 current amplification rate (%) [3]: 10%

N#Cc1ccc(NC(=O)Cn2nc(N3CCCC4(CC4)C3)ccc2=O)cc1 [Example 20]
Nav1.1 current amplification rate (%) [2]: 152%

CN(c1ccc(=O)n(CC(=O)Nc2ccc3cnccc3c2)n1)C1CCCC1 [Example 563]
activation at 1 µM [4]: 50%

Cc1cc(=O)n(CC(=O)Nc2ccc3oc(N(C)C)nc3c2)nc1C1=CCC(C)(C)CC1 [Example 504]
activation at 1 µM [1]: 27%

Cc1ncc(-c2cncc(NC(=O)Cn3nc(C4=CCC(C)CC4)ccc3=O)c2)o1 (racemic) [Example 380]
Nav1.1 current amplification rate (%) [1]: 82%

CC1(C)CCN(c2ccc(=O)n(CC(=O)Nc3ccn4ncnc4c3)n2)CC1 [Example 228]
activation at 1 µM [1]: 29%

CC1CC=C(c2ccc(=O)n(CC(=O)Nc3ccnc(C4=CCN(C)C4)c3)n2)CC1 (racemic) [Example 371]
Nav1.1 current amplification rate (%) [3]: 64%

Cc1ccc(-c2ccc(=O)n(CC(=O)N3CCc4ccccc43)n2)cc1 [Example 157]
Nav1.1 current amplification rate (%) [3]: 29%

CN(c1ccc(=O)n(CC(=O)Nc2ccc(C#N)nc2)n1)C1CCCC1 [Example 561]
activation at 1 µM [4]: 17%

CCC1CC=C(c2ccc(=O)n(CC(=O)Nc3ccn4ncnc4c3)n2)CC1 (stereo not shown) [Example 554]
activation at 1 µM [4]: 115%

CC1(C)CCCC(c2ccc(=O)n(CC(=O)Nc3ccc(C#N)cc3)n2)C1 (stereo not shown) [Example 46]
Nav1.1 current amplification rate (%) [2]: 85%

CC1CC=C(c2ccc(=O)n(CC(=O)N3CCc4c3ccnc4C3=CCOCC3)n2)CC1 (racemic) [Example 296]
Nav1.1 current amplification rate (%) [1]: 87%

N#Cc1ccc(NC(=O)Cn2nc(N3CCCC4(CCC4)C3)ccc2=O)cc1 [Example 33]
Nav1.1 current amplification rate (%) [2]: 220%

COc1cc(=O)n(CC(=O)Nc2ccc3oc(N(C)C)nc3c2)nc1C1=CCC(C)(C)CC1 [Example 500]
activation at 1 µM [1]: 14%

CC1CC=C(c2ccc(=O)n(CC(=O)Nc3ncc4ccccc4n3)n2)CC1 (stereo not shown) [Example 551]
activation at 10 µM (Concentration 10 μM (Test Result 7)): 16%

CC1CC2CCC(C1)N2c1ccc(=O)n(CC(=O)N2CCc3c(N4CCOCC4)cccc32)n1 (stereo not shown) [Example 238]
activation at 50 µM [3]: 128%

CC1C=C(c2ccc(=O)n(CC(=O)Nc3ccc(C#N)cc3)n2)CC(C)O1 (stereo not shown) [Example 49]
Nav1.1 current amplification rate (%) [2]: 2%

CC1CCN(c2ccc(=O)n(CC(=O)Nc3ccc(C#N)cc3)n2)CC1 [Example 1, N-(4-cyanophenyl)-2-[3-(4-methylpiperidin-1-yl)-6-oxopyridazin-1(6H)-yl]acetamide]
activation at 10 µM [2]: 246%

CC1CC=C(c2ccc(=O)n(CC(=O)N3CCc4c(-c5cc[nH]n5)ccnc43)n2)CC1 (racemic) [Example 291]
Nav1.1 current amplification rate (%) [3]: 212%

N#Cc1ccc(NC(=O)Cn2nc(N3CCC4(CC3)COC4)ccc2=O)cc1 [Example 27]
Nav1.1 current amplification rate (%) [2]: 5%

O=C(Cn1nc(C2=CCCC2)ccc1=O)N1CCc2c(N3CCOCC3)cccc21 [Example 481]
Nav1.1 current amplification rate (%) [2]: 128%

CC1CC=C(c2ccc(=O)n(CC(=O)Nc3ccc(-n4ccnc4)nc3)n2)CC1 (racemic) [Example 377]
Nav1.1 current amplification rate (%) [1]: 134%

N#Cc1ccc(NC(=O)Cn2nc(N3CCCCCCC3)ccc2=O)cc1 [Example 12]
Nav1.1 current amplification rate (%) [2]: 241%

CN(c1ccc(=O)n(CC(=O)N2CCc3c(N4CCOCC4)cccc32)n1)C1CCCC1 [Example 565]
activation at 1 µM [4]: 62%

COc1cc(=O)n(CC(=O)Nc2ccc3cncnc3c2)nc1C1=CCC(C)(C)CC1 [Example 541]
activation at 1 µM [4]: 325%

CC1CC2CCC(C1)N2c1ccc(=O)n(CC(=O)Nc2ccn3ccnc3c2)n1 (stereo not shown) [Example 237]
activation at 50 µM [3]: 27%

Cc1nc(N2CCN(C(=O)Cn3nc(C4=CCC(C)CC4)ccc3=O)CC2)no1 (stereo not shown) [Example 406]
Nav1.1 current amplification rate (%) [3]: 68%

Cc1cc(NC(=O)Cn2nc(C3=CCC(C)CC3)ccc2=O)cc(C)n1 (racemic) [Example 364]
Nav1.1 current amplification rate (%) [1]: 25%

Cc1cn(Cc2cccc3c2CCN3C(=O)Cn2nc(C3=CCC(C)CC3)ccc2=O)cn1 (racemic) [Example 288]
Nav1.1 current amplification rate (%) [1]: 115%

CC1(C)CCN(c2ccc(=O)n(CC(=O)Nc3ccc(C#N)cc3)n2)CC1 [Example 2, N-(4-Cyanophenyl)-2-[3-(4,4-dimethylpiperidin-1-yl)-6-oxopyridazin-1(6H)-yl]acetamide]
activation at 10 µM [2]: 148%

CC1(C)CCC=C(c2ccc(=O)n(CC(=O)Nc3ccc(C#N)cc3)n2)C1 [Example 45]
Nav1.1 current amplification rate (%) [2]: 202%

COCCNCc1cccc2c1CCN2C(=O)Cn1nc(C2=CCC(C)CC2)ccc1=O (racemic) [Example 314]
Nav1.1 current amplification rate (%) [1]: 9%

CC1CC=C(c2ccc(=O)n(CC(=O)Nc3ccn4ncnc4c3F)n2)CC1 (stereo not shown) [Example 552]
activation at 1 µM [4]: 24%

CN(CC1(C)CC1)c1ccc(=O)n(CC(=O)N2CCc3c(N4CCOCC4)cccc32)n1 [Example 568]
activation at 1 µM [4]: 42%

N#Cc1ccc(NC(=O)Cn2nc(N3CCCC(C(F)(F)F)C3)ccc2=O)cc1 (stereo not shown) [Example 16]
Nav1.1 current amplification rate (%) [2]: 59%

CC1(C)CC(c2ccc(=O)n(CC(=O)Nc3ccc(C#N)cc3)n2)=CCO1 [Example 506]
activation at 50 µM [3]: 10%

CC1CC=C(c2ccc(=O)n(CC(=O)Nc3cccc(-n4ccnc4)c3)n2)CC1 (racemic) [Example 363]
Nav1.1 current amplification rate (%) [1]: 174%

COC1CCN(Cc2cccc3c2CCN3C(=O)Cn2nc(C3=CCC(C)CC3)ccc2=O)C1 (mixture of isomers) [Example 272]
Nav1.1 current amplification rate (%) [1]: 127%

N#Cc1ccsc1-c1ccc(=O)n(CC(=O)Nc2ccn3ncnc3c2)n1 [Example 498]
activation at 10 µM [2]: 24%

CCC1CC=C(c2ccc(=O)n(CC(=O)Nc3ccc4ncnn4c3)n2)CC1 (stereo not shown) [Example 555]
activation at 1 µM [4]: 80%

CC1CC=C(c2ccc(=O)n(CC(=O)NC3CCN(c4ccccc4)CC3)n2)CC1 (racemic) [Example 368]
Nav1.1 current amplification rate (%) [2]: 18%
